# How the values were obtained:
# [1] = test system: male FVB/N mice on high salt diet, heart; test: High salt (5%) diet intervention model, heart; type: in vivo, mouse
# Summary of the method: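 Male FVB/N mice fed 5% salt diet for 8 weeks (controls 0.35% NaCl); from week 4, AT2R agonist at 75 pmol/kg/min or saline given subcutaneously by osmotic minipump for 4 weeks on continued high salt. Heart collagen by picrosirius red, % interstitial staining averaged over eight fields; immunofluorescence for fibrosis/inflammation markers.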
# [2] = test system: human cardiac fibroblasts; test: TGF-β1-induced collagen production in human cardiac fibroblasts (Western blot); type: cell-based; details: co-treated with TGF-β1 for 3 days, increasing concentrations up to 1 μM
# Protocol: D) Human cardiac fibroblasts (HCFs) were treated with TGFβ1 to induce a pro-fibrotic phenotype state in cell culture, exemplified by increased collagen-1 production, measured by Western blot. HCFs were treated with TGFβ1 alone, or in the presence of an AT2R agonist for 3 days, and the ability of AT2R agonists to inhibit TGFβ1-induced collagen-1 production was measured.
# Commercially available human cardiac fibroblasts (HCF, Catalog #6300, Sciencell, Calif., USA) were grown in T75 flask maintained in an incubator at 37° C., 5% CO2. Complete media composition: M199 media (#11150-059, life technologies)+10% FBS (#10437-028, life technologies)+1% Fibroblast Growth Supplement-2 (#2382, ScienCell)+1% penicillin/streptomycin 10,000 U/ml antibiotics (#15140-122, Life Technologies). Fresh complete media was replenished every alternate day until culture reached 70% confluence in which media is replenished daily until it reached approximately 90% confluence in order to passage/subculture. To subculture, media was discarded and culture was rinsed with warm PBS. After which, culture was detached using warm 0.05% Trypsin+EDTA with gentle swirling of flask to make sure cells were not adherent to surface of flask. Trypsin was then neutralized with complete media and suspension was then transferred into a new falcon tube and centrifuged at 1000 rpm for 5 minutes. Supernatant was discarded and pellet of cells were resuspended with 5 ml of complete media, followed by cell counting. For subculturing/passaging, 1 million HCFs are placed into a T75 flask. For Picrosirius Red (PSR) staining or immunofluorescence experiments, 100 k cells were loaded per well in a 24 well plate lined with round coverslips. […]
# Once treatment is complete, cells were washed with warm PBS and detached using Accutase (A6964, Sigma), with 5 minutes incubation at 37° C. […] The supernatant (˜20 ul) was transferred to a new tube and protein concentrations were measured using Biorad Lowry protein assay. Protein quantification of respective markers were performed via standard western blot analysis. […]
substance,measurement,setting,value
Arg-Val-Tyr-Ile-His-β-Pro-Phe [βPro-Ang III],myofibroblast differentiation in heart (α-SMA),"[1]; 75 pmol/kg/min s.c., weeks 5-8",fully reversed the high salt-induced myofibroblast differentiation
same,cardiac fibrosis (picrosirius red),"[1]; weeks 5-8 of high salt diet, peptides 75 pmol/kg/min s.c. mini-pump, Cand 2 mg/kg/day, captopril 3 mg/kg/day in drinking water",reversed established cardiac fibrosis
same,TGF-β1-induced collagen production,[2],dose-dependent decreases
